SMILES strings stand for the structures.

Test [1] has as its system HIV-1 (strain IIIB). The test can be described thus: Antiviral activity assay in MT4 cells (propidium iodide based). The test is classed as cell-based. The note with it: Human immunodeficiency virus 1, IIIB; wild type HIV-1 virus, MT4 cells; read-out: Wildtype virus - IC50. The method, boiled down: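 Compound serial dilutions in RPMI/FCS received MT4 cells pre-infected 1 hr at 37°C with HIV-1 IIIB at 100×TCID50. After 5 days' culture and Nonidet-40 lysis, well DNA content was measured by propidium iodide dye; mock-infected cells served as control.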

Test [2] relates to D545701-14 multi protease inhibitor resistant virus. The test can be described thus: Anti-viral activity against resistant virus D545701-14 in MT4 cells. The conditions noted are these: Human immunodeficiency virus 1, MT4, read-out: D545701-14 mutant - IC50, D545701-14 multi protease inhibitor resistant virus, MT4 cells. The test is classed as cell-based, HIV-1.
In test [3] the test system is EP13 multi protease inhibitor resistant virus. The test can be described thus: Anti-viral activity against resistant virus EP13 in MT4 cells. The test is classed as cell-based, HIV-1. The conditions noted are these: Human immunodeficiency virus 1, MT4, read-out: EP13 mutant IC50, EP13 multi protease inhibitor resistant virus, MT4 cells. The method, boiled down: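 MT4 cells infected for 1 h at 37 °C, MOI 100×TCID50, then diluted 6-fold onto pre-diluted compound and cultured 5 days (5% CO2). Viable-cell DNA content estimated by propidium iodide. EP13 carries protease mutations M46I, L63P, A71V, V82F/L, I84V, no RT mutations.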

For orientation: IC50 means the concentration at which inhibition is half-maximal. Turning to `CC(C)CN(C[C@@H](O)[C@H](Cc1ccc(OCc2ccc3ccccc3c2)cc1)NC(=O)O[C@H]1CO[C@H]2OCC[C@H]21)S(=O)(=O)c1ccc2c(c1)OCO2` [Compound 376, (3R,3aS,6aR)-hexahydrofuro[2,3-b]furan-3-yl (1S,2R)-3-[(1,3-benzodioxol-5-ylsulfonyl)(isobutyl)amino]-2-hydroxy-1-[4-(2-naphthylmethoxy)benzyl]propylcarbamate], the IC50 in test [1] lay within 1 to 10 nM; in test [2], 10 to 100 nM; in test [3], 10 to 100 nM.
As for `Cc1cccc(COc2ccc(C[C@H](NC(=O)O[C@H]3CO[C@H]4OCC[C@H]43)[C@H](O)CN(CC(C)C)S(=O)(=O)c3ccc4c(c3)OCO4)cc2)c1` [Compound 377, (3R,3aS,6aR)-hexahydrofuro[2,3-b]furan-3-yl (1S,2R)-3-[(1,3-benzodioxol-5-ylsulfonyl)(isobutyl)amino]-2-hydroxy-1-{4-[(3-methylbenzyl)oxy]benzyl}propylcarbamate], the IC50 in test [1] fell in the range of 1 to 10 nM; in test [2], 10 to 100 nM; in test [3] it was 1 to 10 nM.
For `CC(C)CN(C[C@@H](O)[C@H](Cc1ccc(OCc2cccc(F)c2)cc1)NC(=O)O[C@H]1CO[C@H]2OCC[C@H]21)S(=O)(=O)c1ccc2c(c1)OCO2` [Compound 378, (3R,3aS,6aR)-hexahydrofuro[2,3-b]furan-3-yl (1S,2R)-3-[(1,3-benzodioxol-5-ylsulfonyl)(isobutyl)amino]-1-{4-[(3-fluorobenzyl)oxy]benzyl}-2-hydroxypropylcarbamate], the figures for the IC50 in test [1], in test [2] and in test [3] were 1 to 10 nM, 10 to 100 nM and 1 to 10 nM, respectively.
Regarding `CC(C)CN(C[C@@H](O)[C@H](Cc1ccc(OCc2ccc(F)c(F)c2)cc1)NC(=O)O[C@H]1CO[C@H]2OCC[C@H]21)S(=O)(=O)c1ccc2c(c1)OCO2` [Compound 379, (3R,3aS,6aR)-hexahydrofuro[2,3-b]furan-3-yl (1S,2R)-3[(1,3-benzodioxol-5-ylsulfonyl)(isobutyl)amino]-1-{4-[(3,4-difluorobenzyl)oxy]benzyl}-2-hydroxypropylcarbamate], the IC50 in test [1], in test [2] and in test [3] was 1 to 10 nM throughout.
Take `CC(C)CN(C[C@@H](O)[C@H](Cc1ccc(OCc2cc(F)cc(F)c2)cc1)NC(=O)O[C@H]1CO[C@H]2OCC[C@H]21)S(=O)(=O)c1ccc2c(c1)OCO2` [Compound 380, (3R,3aS,6aR)-hexahydrofuro[2,3-b]furan-3-yl (1S,2R)-3-[(1,3-benzodioxol-5-ylsulfonyl)(isobutyl)amino]-1-{4-[(3,5-difluorobenzyl)oxy]benzyl}-2-hydroxypropylcarbamate]: the values for the IC50 in test [1], in test [2] and in test [3] were 1 to 10 nM, 10 to 100 nM and 1 to 10 nM, respectively.
`CC(C)CN(C[C@@H](O)[C@H](Cc1ccc(OCc2ccc(C#N)cc2)cc1)NC(=O)O[C@H]1CO[C@H]2OCC[C@H]21)S(=O)(=O)c1ccc2c(c1)OCO2` [Compound 381, (3R,3aS,6aR)-hexahydrofuro[2,3-b]furan-3-yl (1S,2R)-3-[(1,3-benzodioxol-5-ylsulfonyl)(isobutyl)amino]-1-{4-[(4-cyanobenzyl)oxy]benzyl}-2-hydroxypropylcarbamate]: the IC50 in test [1], in test [2] and in test [3] was 1 to 10 nM throughout.
Consider `CC(C)CN(C[C@@H](O)[C@H](Cc1ccc(OCc2ccccc2C#N)cc1)NC(=O)O[C@H]1CO[C@H]2OCC[C@H]21)S(=O)(=O)c1ccc2c(c1)OCO2` [Compound 382, (3R,3aS,6aR)-hexahydrofuro[2,3-b]furan-3-yl (1S,2R)-3-[(1,3-benzodioxol-5-ylsulfonyl)(isobutyl)amino]-1-{4-[(2-cyanobenzyl)oxy]benzyl}-2-hydroxypropylcarbamate], for which the IC50 in test [1], in test [2] and in test [3] was 1 to 10 nM in each case.
As for `CC(C)CN(C[C@@H](O)[C@H](Cc1ccc(OCc2cccc([N+](=O)[O-])c2)cc1)NC(=O)O[C@H]1CO[C@H]2OCC[C@H]21)S(=O)(=O)c1ccc2c(c1)OCO2` [Compound 384, (3R,3aS,6aR)-hexahydrofuro[2,3-b]furan-3-yl (1S,2R)-3-[(1,3-benzodioxol-5-ylsulfonyl)(isobutyl)amino]-2-hydroxy-1-{4-[(3-nitrobenzyl)oxy]benzyl}propylcarbamate], the IC50 in test [1], in test [2] and in test [3] was 1 to 10 nM throughout.
Turning to `Cc1noc(C)c1COc1ccc(C[C@H](NC(=O)O[C@H]2CO[C@H]3OCC[C@H]32)[C@H](O)CN(CC(C)C)S(=O)(=O)c2ccc3c(c2)OCO3)cc1` [Compound 385, (3R,3aS,6aR)-hexahydrofuro[2,3-b]furan-3-yl (1S,2R)-3-[(1,3-benzodioxol-5-ylsulfonyl)(isobutyl)amino]-1-{4-[(3,5-dimethyl-4-isoxazolyl)methoxy]benzyl}-2-hydroxypropylcarbamate], the values for the IC50 in test [1], in test [2] and in test [3] were 1 to 10 nM, 10 to 100 nM and 1 to 10 nM, respectively.
`CC(C)CN(C[C@@H](O)[C@H](Cc1ccc(OCc2nnsc2Cl)cc1)NC(=O)O[C@H]1CO[C@H]2OCC[C@H]21)S(=O)(=O)c1ccc2c(c1)OCO2` [Compound 386, (3R,3aS,6aR)-hexahydrofuro[2,3-b]furan-3-yl (1S,2R)-3-[(1,3-benzodioxol-5-ylsulfonyl)(isobutyl)amino]-1-{4-[(5-chloro-1,2,3-thiadiazol-4-yl)methoxy]benzyl}-2-hydroxypropylcarbamate]: the half-inhibitory concentration (IC50) in test [1] is 1 to 10 nM; in test [2], 10 to 100 nM; in test [3], 1 to 10 nM.
For `CC(C)CN(C[C@@H](O)[C@H](Cc1ccc(OCc2csc3ccccc23)cc1)NC(=O)O[C@H]1CO[C@H]2OCC[C@H]21)S(=O)(=O)c1ccc2c(c1)OCO2` [Compound 387, (3R,3aS,6aR)-hexahydrofuro[2,3-b]furan-3-yl (1S,2R)-3-[(1,3-benzodioxol-5-ylsulfonyl)(isobutyl)amino]-1-[4-(1-benzothien-3-ylmethoxy)benzyl]-2-hydroxypropylcarbamate], the half-maximal inhibitory concentration (IC50) in test [1], in test [2] and in test [3] was 1 to 10 nM in each case.
Regarding `CC(C)CN(C[C@@H](O)[C@H](Cc1ccc(OCc2ccccc2CS(=O)(=O)c2ccccc2)cc1)NC(=O)O[C@H]1CO[C@H]2OCC[C@H]21)S(=O)(=O)c1ccc2c(c1)OCO2` [Compound 388, (3R,3aS,6aR)-hexahydrofuro[2,3-b]furan-3-yl (1S,2R)-3-[(1,3-benzodioxol-5-ylsulfonyl)(isobutyl)amino]-2-hydroxy-1-[4-{(2-[(phenylsulfonyl)methyl]benzyl}oxy)benzyl]propylcarbamate], the IC50 in test [1], in test [2] and in test [3] was 1 to 10 nM in each case.
As for `Cc1noc(C)c1-c1nc(COc2ccc(C[C@H](NC(=O)O[C@H]3CO[C@H]4OCC[C@H]43)[C@H](O)CN(CC(C)C)S(=O)(=O)c3ccc4c(c3)OCO4)cc2)no1` [Compound 389, (3R,3aS,6aR)-hexahydrofuro[2,3-b]furan-3-yl (1S,2R)-3-[(1,3-benzodioxol-5-ylsulfonyl)(isobutyl)amino]-1-(4-{[5-(3,5-dimethyl-4-isoxazolyl)-1,2,4-oxadiazol-3-yl]methoxy}benzyl)-2-hydroxypropylcarbamate], the IC50 in test [1], in test [2] and in test [3] was 1 to 10 nM each time.
As for `COc1ccc(-c2nc(COc3ccc(C[C@H](NC(=O)O[C@H]4CO[C@H]5OCC[C@H]54)[C@H](O)CN(CC(C)C)S(=O)(=O)c4ccc5c(c4)OCO5)cc3)no2)cc1` [Compound 391, (3R,3aS,6aR)-hexahydrofuro[2,3-b]furan-3-yl (1S,2R)-3-[(1,3-benzodioxol-5-ylsulfonyl)(isobutyl)amino]-2-hydroxy-1-(4-{[5-(4-methoxyphenyl)-1,2,4-oxadiazol-3-yl]methoxy}benzyl)propylcarbamate], the IC50 in test [1], in test [2] and in test [3] was 1 to 10 nM throughout.
Consider `CC(C)CN(C[C@@H](O)[C@H](Cc1ccc(OCc2ccc(-c3ccccc3C#N)cc2)cc1)NC(=O)O[C@H]1CO[C@H]2OCC[C@H]21)S(=O)(=O)c1ccc2c(c1)OCO2` [Compound 392, (3R,3aS,6aR)-hexahydrofuro[2,3-b]furan-3-yl (1S,2R)-3-[(1,3-benzodioxol-5-ylsulfonyl)(isobutyl)amino]-1-{4-[(2′-cyano[1,1-biphenyl]-4-yl)methoxy]benzyl}-2-hydroxypropylcarbamate], for which the IC50 in test [1], in test [2] and in test [3] was 1 to 10 nM in each case.
In the case of `CC(C)CN(C[C@@H](O)[C@H](Cc1ccc(OCC#N)cc1)NC(=O)O[C@H]1CO[C@H]2OCC[C@H]21)S(=O)(=O)c1ccc2c(c1)OCO2` [Compound 393, (3R,3aS,6aR)-hexahydrofuro[2,3-b]furan-3-yl (1S,2R)-3-[(1,3-benzodioxol-5-ylsulfonyl)(isobutyl)amino]-1-[4-(cyanomethoxy)benzyl]-2-hydroxypropylcarbamate], the IC50 in test [1], in test [2] and in test [3] was 10 to 100 nM each time.
For the molecule `O=C(N[C@@H](Cc1ccc(OCc2ccccc2)cc1)[C@H](O)CN(CC1CCCC1)S(=O)(=O)c1ccc2c(c1)OCO2)O[C@H]1CO[C@H]2OCC[C@H]21` [Compound 395, (3R,3aS,6aR)-hexahydrofuro[2,3-b]furan-3-yl (1S,2R)-3-[(1,3-benzodioxol-5-ylsulfonyl) (cyclopentylmethyl)amino]-1-[4-(benzyloxy)benzyl]-2-hydroxypropylcarbamate], the IC50 in test [1], in test [2] and in test [3] was 1 to 10 nM each time.

The record behind these values is patent US8455497B2, “Inhibitors of aspartyl protease” (Vertex Pharmaceuticals Incorporated, priority 1999, dated 2013).
